Source: US20060069132A1, “Azolecarboxamide herbicides” (priority 2004, published 2006)

Key:
ducksalad = test: Test C flooded paddy test; type: in vivo, Heteranthera limosa
Surinam grass = test: Test C pre-/postemergence herbicide test; type: in vivo, Urochloa decumbens; conditions: for Plant response rating (0 = no effect, 100 = complete control), Surinam Grass: 125 g ai/ha
In short: (§1)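 Visual injury scores run from 0 (no effect) to 100 (complete control), assessed relative to untreated controls 12 to 14 days after treatment in the greenhouse. Chemicals were formulated in a non-phytotoxic solvent mixture with surfactant and applied to soil after planting or to emerged plants at the 1- to 4-leaf stage.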

eastern black nightshade = test: Test C pre-/postemergence herbicide test; type: in vivo, Solanum ptycanthum
In short: as §1

large crabgrass = test: Test C pre-/postemergence herbicide test; type: in vivo, Digitaria sanguinalis
In short: as §1

common ragweed = test: Test C pre-/postemergence herbicide test; type: in vivo, Ambrosia elatior; design: key to Plant response rating, Ragweed: 0 = no effect, 100 = complete control; conditions: for Plant response rating (0 = no effect, 100 = complete control), Ragweed: 125 g ai/ha
In short: as §1

pigweed = test: Test C pre-/postemergence herbicide test; type: in vivo, Amaranthus retroflexus
In short: as §1

rice = test: Test C flooded paddy test; type: in vivo, Oryza sativa
In short: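 Plants were grown to the 1- to 4-leaf stage (2–18 cm) and then treated postemergence, or grown to the 2-leaf stage for the flooded paddy test. They were held in a greenhouse for 12 to 14 days and then scored by eye against controls, where 0 is no effect and 100 is complete control.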

[1] = 125 g ai/ha, scale 0 to 100 (0 no effect, 100 complete control)
[2] = 250 g ai/ha, scale of 0 to 100, 0 is no effect, 100 is complete control
[3] = 500 g ai/ha, visual rating after 12 to 14 days, scale 0 to 100 (0 no effect, 100 complete control)
[4] = 62 g ai/ha, preemergence, scale 0 to 100
[5] = 250 g ai/ha, scale 0-100, preemergence
[6] = 125 g ai/ha, scale 0 (no effect) to 100 (complete control), visual, 12 to 14 days, preemergence
[7] = 500 g ai/ha, scale 0 to 100 (0 no effect, 100 complete control), visual, 12 to 14 days, preemergence

CCn1nc(C(C)(C)C)cc1C(=O)Nc1cc(C(=S)N(C)C)ccn1 [Compound 334]
Ducksalad plant response rating (ducksalad; 62 g ai/ha, scale 0 to 100): 75
Ducksalad plant response rating (ducksalad; [1]): 85
Ducksalad plant response rating (ducksalad; [2]): 85
Plant response rating, Ducksalad (ducksalad; [3]): 90
Plant response rating, Surinam Grass (Surinam grass; [4]): 55
Plant response rating, Surinam Grass (Surinam grass; [5]): 95
Plant response rating, Nightshade (eastern black nightshade; [4]): 100
Plant response rating, Nightshade (eastern black nightshade; [6]): 100
Plant response rating, Nightshade (eastern black nightshade; [5]): 100
Plant response rating, Crabgrass, Large (large crabgrass; [4]): 85
Plant response rating, Crabgrass, Large (large crabgrass; [6]): 100
Plant response rating, Crabgrass, Large (large crabgrass; [5]): 100
Plant response rating, Ragweed (common ragweed; [4]): 75
Plant response rating, Ragweed (common ragweed; [5]): 100
Plant response rating, Pigweed (pigweed; [4]): 100
Plant response rating, Pigweed (pigweed; [6]): 100
Plant response rating, Pigweed (pigweed; [5]): 100
Rice plant response rating (rice; 62 g ai/ha, scale 0 to 100): 70
Rice plant response rating (rice; [1]): 75
Rice plant response rating (rice; [2]): 80
Plant response rating, Rice (rice; [3]): 85

CCn1nc2c(c1C(=O)Nc1cc(C(=O)N(C)C)ccc1F)CCC2(C)C [Compound 352, N-[5-[(dimethylamino)carbonyl]-2-fluorophenyl]-2-ethyl-2,4,5,6-tetrahydro-6,6-dimethyl-3-cyclopentapyrazolecarboxamide]
pest or weed control at 62 g/ha (ducksalad; Heteranthera limosa, 62 g ai/ha, scale 0 to 100, read-out: Ducksalad plant response rating): 20%
pest or weed control at 125 g/ha (ducksalad; Heteranthera limosa, 125 g ai/ha, scale 0 to 100 (0 no effect, 100 complete control), read-out: Ducksalad plant response rating): 65%
pest or weed control at 250 g/ha (ducksalad; Heteranthera limosa, 250 g ai/ha, scale of 0 to 100, 0 is no effect, 100 is complete control, read-out: Ducksalad plant response rating): 85%
pest or weed control at 500 g/ha (ducksalad; Heteranthera limosa, 500 g ai/ha, visual rating after 12 to 14 days, scale 0 to 100 (0 no effect, 100 complete control), read-out: Plant response rating, Ducksalad): 95%
Plant response rating (0 = no effect, 100 = complete control), Surinam Grass (Surinam grass; preemergence): 50
pest or weed control at 62 g/ha (Surinam grass; Urochloa decumbens, pre-emergence, 312 h, 62 g ai/ha, preemergence, scale 0 to 100, read-out: Plant response rating, Surinam Grass): 10%
pest or weed control at 250 g/ha (Surinam grass; Urochloa decumbens, pre-emergence, 312 h, 250 g ai/ha, scale 0-100, read-out: Plant response rating, Surinam Grass): 100%
pest or weed control at 500 g/ha (Surinam grass; Urochloa decumbens, pre-emergence, 312 h, 500 g ai/ha, scale 0 to 100 (0 no effect, 100 complete control), visual, 12 to 14 days, read-out: Plant response rating, Surinam Grass): 100%
Plant response rating (0 = no effect, 100 = complete control), Nightshade (eastern black nightshade; 125 g ai/ha, preemergence): 0
pest or weed control at 62 g/ha (eastern black nightshade; pre-emergence, 62 g ai/ha, preemergence, scale 0 to 100, read-out: Plant response rating, Nightshade): 0%
pest or weed control at 250 g/ha (eastern black nightshade; pre-emergence, 250 g ai/ha, scale 0-100, read-out: Plant response rating, Nightshade): 50%
pest or weed control at 500 g/ha (eastern black nightshade; pre-emergence, 500 g ai/ha, scale 0 to 100 (0 no effect, 100 complete control), visual, 12 to 14 days, read-out: Plant response rating, Nightshade): 100%
Plant response rating (0 = no effect, 100 = complete control), Crabgrass, Large (large crabgrass; 125 g ai/ha, preemergence): 85
pest or weed control at 62 g/ha (large crabgrass; Digitaria sanguinalis, pre-emergence, 312 h, 62 g ai/ha, preemergence, scale 0 to 100, read-out: Plant response rating, Crabgrass, Large): 55%
pest or weed control at 250 g/ha (large crabgrass; Digitaria sanguinalis, pre-emergence, 312 h, 250 g ai/ha, scale 0-100, read-out: Plant response rating, Crabgrass, Large): 100%
pest or weed control at 500 g/ha (large crabgrass; Digitaria sanguinalis, pre-emergence, 312 h, 500 g ai/ha, scale 0 to 100 (0 no effect, 100 complete control), visual, 12 to 14 days, read-out: Plant response rating, Crabgrass, Large): 100%
Plant response rating (0 = no effect, 100 = complete control), Ragweed (common ragweed; preemergence): 40
pest or weed control at 62 g/ha (common ragweed; Ambrosia artemisiifolia, pre-emergence, 62 g ai/ha, preemergence, scale 0 to 100, read-out: Plant response rating, Ragweed): 0%
pest or weed control at 250 g/ha (common ragweed; Ambrosia artemisiifolia, pre-emergence, 250 g ai/ha, scale 0-100, read-out: Plant response rating, Ragweed): 50%
pest or weed control at 500 g/ha (common ragweed; Ambrosia artemisiifolia, pre-emergence, 500 g ai/ha, scale 0 to 100 (0 no effect, 100 complete control), visual, 12 to 14 days, read-out: Plant response rating, Ragweed): 60%
Plant response rating (0 = no effect, 100 = complete control), Pigweed (pigweed; 125 g ai/ha, preemergence): 85
pest or weed control at 62 g/ha (pigweed; Amaranthus retroflexus, pre-emergence, 62 g ai/ha, preemergence, scale 0 to 100, read-out: Plant response rating, Pigweed): 40%
pest or weed control at 250 g/ha (pigweed; Amaranthus retroflexus, pre-emergence, 250 g ai/ha, scale 0-100, read-out: Plant response rating, Pigweed): 100%
pest or weed control at 500 g/ha (pigweed; Amaranthus retroflexus, pre-emergence, 500 g ai/ha, scale 0 to 100 (0 no effect, 100 complete control), visual, 12 to 14 days, read-out: Plant response rating, Pigweed): 100%
plant injury at 62 g/ha (rice; Oryza sativa, 62 g ai/ha, scale 0 to 100, read-out: Rice plant response rating): 20%
plant injury at 125 g/ha (rice; Oryza sativa, 125 g ai/ha, scale 0 to 100 (0 no effect, 100 complete control), read-out: Rice plant response rating): 45%
plant injury at 250 g/ha (rice; Oryza sativa, 250 g ai/ha, scale of 0 to 100, 0 is no effect, 100 is complete control, read-out: Rice plant response rating): 60%
plant injury at 500 g/ha (rice; Oryza sativa, 500 g ai/ha, visual rating after 12 to 14 days, scale 0 to 100 (0 no effect, 100 complete control), read-out: Plant response rating, Rice): 70%

CCNC(=O)c1cccc(NC(=O)c2nn(C(C)(C)C)nc2C)c1 [Compound 392]
Ducksalad plant response rating (ducksalad; 62 g ai/ha, scale 0 to 100): 45
Ducksalad plant response rating (ducksalad; [1]): 75
Ducksalad plant response rating (ducksalad; [2]): 85
Plant response rating, Ducksalad (ducksalad; [3]): 85
Plant response rating, Surinam Grass (Surinam grass; [4]): 50
Plant response rating (0 = no effect, 100 = complete control), Surinam Grass (Surinam grass; preemergence): 85
Plant response rating, Surinam Grass (Surinam grass; [5]): 85
Plant response rating, Surinam Grass (Surinam grass; [7]): 90
Plant response rating, Nightshade (eastern black nightshade; [4]): 90
Plant response rating (0 = no effect, 100 = complete control), Nightshade (eastern black nightshade; 125 g ai/ha, preemergence): 95
Plant response rating, Nightshade (eastern black nightshade; [5]): 100
Plant response rating, Nightshade (eastern black nightshade; [7]): 100
Plant response rating, Crabgrass, Large (large crabgrass; [4]): 98
Plant response rating (0 = no effect, 100 = complete control), Crabgrass, Large (large crabgrass; 125 g ai/ha, preemergence): 100
Plant response rating, Crabgrass, Large (large crabgrass; [5]): 100
Plant response rating, Crabgrass, Large (large crabgrass; [7]): 100
Plant response rating, Ragweed (common ragweed; [4]): 60
Plant response rating (0 = no effect, 100 = complete control), Ragweed (common ragweed; preemergence): 100
Plant response rating, Ragweed (common ragweed; [5]): 100
Plant response rating, Ragweed (common ragweed; [7]): 100
Plant response rating, Pigweed (pigweed; [4]): 100
Plant response rating (0 = no effect, 100 = complete control), Pigweed (pigweed; 125 g ai/ha, preemergence): 100
Plant response rating, Pigweed (pigweed; [5]): 100
Plant response rating, Pigweed (pigweed; [7]): 100
Rice plant response rating (rice; 62 g ai/ha, scale 0 to 100): 50
Rice plant response rating (rice; [1]): 60
Rice plant response rating (rice; [2]): 75
Plant response rating, Rice (rice; [3]): 75

CCc1nn(C(C)(C)C)nc1C(=O)Nc1cccc(C(=S)N(C)C)c1 [Compound 395]
Ducksalad plant response rating (ducksalad; 62 g ai/ha, scale 0 to 100): 15
Ducksalad plant response rating (ducksalad; [1]): 20
Ducksalad plant response rating (ducksalad; [2]): 55
Plant response rating, Ducksalad (ducksalad; [3]): 55
Plant response rating, Surinam Grass (Surinam grass; [4]): 95
Plant response rating (0 = no effect, 100 = complete control), Surinam Grass (Surinam grass; preemergence): 100
Plant response rating, Surinam Grass (Surinam grass; [5]): 100
Plant response rating, Surinam Grass (Surinam grass; [7]): 100
Plant response rating, Nightshade (eastern black nightshade; [4]): 100
Plant response rating (0 = no effect, 100 = complete control), Nightshade (eastern black nightshade; 125 g ai/ha, preemergence): 100
Plant response rating, Nightshade (eastern black nightshade; [5]): 100
Plant response rating, Nightshade (eastern black nightshade; [7]): 100
Plant response rating, Crabgrass, Large (large crabgrass; [4]): 100
Plant response rating (0 = no effect, 100 = complete control), Crabgrass, Large (large crabgrass; 125 g ai/ha, preemergence): 100
Plant response rating, Crabgrass, Large (large crabgrass; [5]): 100
Plant response rating, Crabgrass, Large (large crabgrass; [7]): 100
Plant response rating, Ragweed (common ragweed; [4]): 65
Plant response rating (0 = no effect, 100 = complete control), Ragweed (common ragweed; preemergence): 95
Plant response rating, Ragweed (common ragweed; [5]): 100
Plant response rating, Ragweed (common ragweed; [7]): 100
Plant response rating, Pigweed (pigweed; [4]): 100
Plant response rating (0 = no effect, 100 = complete control), Pigweed (pigweed; 125 g ai/ha, preemergence): 100
Plant response rating, Pigweed (pigweed; [5]): 100
Plant response rating, Pigweed (pigweed; [7]): 100
Rice plant response rating (rice; 62 g ai/ha, scale 0 to 100): 70
Rice plant response rating (rice; [1]): 70
Rice plant response rating (rice; [2]): 70
Plant response rating, Rice (rice; [3]): 75
